Laboratory results taken from patent publication US20220387466A1, “COMPOUNDS AND PHARMACEUTICAL COMPOSITIONS FOR PREVENTION AND/OR TREATMENT OF DYSBIOSIS AND ANTIBACTERIAL ANTIDOTES FOR MICROBIOME-PROTECTION” (priority 2019, published 2022).
In brackets after ≈: the same amount, converted by molar mass. Entries after “also recorded” stand apart in the source; their conditions may differ.

How the values were obtained:
[1] = tested on: abundant gut commensal species; test: Checkerboard assays on further abundant gut commensals; type: cell-based; conditions: for tested abundant gut commensal species whose growth is rescued: antidote 5-40 μm, clinically relevant erythromycin concentrations; for counteracting erythromycin on other abundant gut commensals: checkerboard with erythromycin
Source text: (§1) Checkerboard assays for anaerobic commensals: Validated antagonists were further investigated in 8×8 checkerboard assays, where both antibiotics and antagonists were titrated against each other. Such assays were first performed for the commensals that were originally screened (i. e. B. vulgatus and B. uniformis—4 replicates) and later expanded towards 6 further gut microbes (B. caccae, B. fragilis NT, B. ovatus, B. thetaiotaomicron, P. copri, P. distasonis—2 replicates). For vertical gradients, 2-fold serial dilutions of the antagonists were prepared first in 100× in DMSO and diluted in MGAM as described above (section ‘Validation of microbiome-protective antagonists’). Horizontal antibiotic dilution series were freshly prepared in MGAM at 4× final concentration in equidistant concentration steps. Both, vertical and horizontal dilution series were combined (50 μl of the antagonist gradients (2×) and 25 μl of the antibiotic gradients (4×)) in 96 well plates. Plates were pre-reduced under anaerobic conditions overnight, inoculated with 25 μl of diluted overnight culture (at 4× starting OD) and sealed with breathable membrane (Breathe-Easy®). Bacterial growth was monitored once per hour for 24 hours after 30 sec linear shaking (Eon+Biostack 4, Biotek) under anaerobic conditions. Growth curves were converted into normalized AUCs as described using in-plate controls to define unperturbed growth.

[2] = tested on: species of the order Bacteroidales; test: Antidote vs azithromycin across seven gut Bacteroidales (Example 4); type: cell-based; conditions: combination with azithromycin
Experimental: The antidotes dicumarol (first column), benzbromarone (second column) and tolfenamic acid (third column) were tested for their efficacy in antagonizing the macrolide antibiotic azithromycin across seven prevalent and abundant gut Bacteroidales (B. vulgatus, B. fragilis NT, B. thetaiotaomicron, P. copri, B. caccae, B. ovatus, P. distasonis). […] All drug concentrations are in μM.
In particular, they aimed at testing, whether these antidotes can also protect from other macrolides such as azithromycin, a clinically more relevant antibiotic.

B. vulgatus [3] = test: Validation of microbiome-protective antagonists (concentration-dependent growth rescue); type: cell-based, Bacteroides vulgatus; conditions: antagonist gradient, normalized AUC >0.25 = growth rescue
Experimental: Validation of microbiome-protective antagonists: In a first step, the inventors kept the erythromycin/doxycycline concentration constant (0.625 μM for erythromycin, 0.078 μM (B. vulgates)/0.039 μM (B. uniformis) for doxycycline) and tested concentration gradients of the potential antagonists with ranges depending on the antagonist's solubility. Compounds were purchased from independent vendors and dissolved at 100× starting concentration in DMSO. Eight 2-fold serial dilutions were prepared in 96-well plates with each row containing a different antagonist, sufficient control DMSO wells and wells with just the respective antibiotic (‘antibiotic-only’ control). These master plates were diluted in MGAM medium (50 μl) to 2×assay concentration and 25 μl freshly prepared antibiotic solution (4× test concentration) was added. Plates were pre-reduced overnight in an anaerobic chamber and inoculated with 25 μl of overnight cultures (prepared as described under “Growth conditions”) to reach a starting OD578 of 0.01 and 1% DMSO concentration. Growth was monitored hourly for 24 h after 30 sec of linear shaking. Experiments were performed in biological triplicates. For analysis, growth curves were converted into normalized AUCs (see above). The inventors accounted for residual growth in the presence of the antibiotic by subtracting the median normalized AUCs of the ‘antibiotic-only’ control per plate.

E. faecalis [4] = test: E. faecalis-containing synthetic community, E. faecalis CFU on selective medium (Example 7); type: cell-based, Enterococcus faecalis
Source text: (§2) Heat maps show median area under the growth curve (AUC) of the seven-member synthetic community including the pathogen E. faecalis. The numbers within the heat map represent the total number of all E. faecalis viable cells for each erythromycin-antidote combination as determined by enumerating of E. faecalis colony forming units after plating on selective medium. All drug concentrations are in μM. n. d.=not detectable.
(§3) The inventors exposed synthetic communities that contained the intestinal gut pathogen E. faecalis to erythromycin, and evaluated rescue of gut commensals and simultaneous killing of the pathogen in the presence of antidotes.

B. vulgatus [5] = test: 8x8 checkerboard assay for anaerobic commensals (antibiotic vs antagonist); type: cell-based, Bacteroides vulgatus; conditions: for rescue of B. vulgatus growth from erythromycin: combination with erythromycin
Source text: as §1

[6] = tested on: seven-member synthetic community including the pathogen E. faecalis; test: E. faecalis-containing synthetic community, community growth AUC (Example 7); type: cell-based
Source text: as §2, §3

E. faecalis [7] = test: Antidote with macrolide on enterococci (Example 6); type: cell-based, Enterococcus faecalis
Source text: Heat maps show median area under the growth curve (AUC) of three biologically independent replicates. […] All drug concentrations are in μM.
Here, the inventors expanded testing towards additional antidotes, and included the intestinal human pathogen Enterococcus faecalis.

Streptococcus pneumoniae = test: Antagonist concentration gradients at constant antibiotic concentration, aerobic; type: cell-based
Experimental: (§4) Checkerboard assays for pathogens under aerobic conditions: For three pathogens (S. aureus Newman ATCC 13420, S. aureus subsp. aureus Rosenbach 1884 DSM20231 and E. faecium ATCC19434) 8×8 checkerboard assays were performed in transparent 384 well plates (Greiner BioOne GmbH), with each well containing 30 μl (50 μl for S. pneumoniae) in total. S. aureus strains were grown in tryptic soy broth, E. faecium in BHI medium. Antagonistic drug concentrations were 2-fold distant. Cell were inoculated at initial OD595 nm 0.01 from an overnight culture. Plates were sealed with breathable membranes (Breathe-Easy), incubated at 37° C. (Cytomat 2, Thermo Scientific) with continuous shaking and OD595 nm was measured every 30 minutes for 16 hours in a Filtermax F5 multimode plate reader (Molecular Devices). Growth was evaluated at the transition to stationary phase (9 hours for S. aureus, 12 hours for E. faecium). All experiments were done at least in 2 biological replicates and 2 technical replicates. For S. pneumoniae […], the inventors only tested concentration gradients of the potential antagonists in constant concentration of the antibiotics in BHI medium.

E. faecium [8] = test: Antidote with macrolide on enterococci (Example 6); type: cell-based
B. vulgatus [9] = test: Prestwick library screen for microbiome-protective antibiotic antagonists (growth AUC z-scores); type: cell-based, Bacteroides vulgatus; conditions: z-score of normalized growth AUC, two replicates
[10] = tested on: synthetic gut commensal community of seven human gut commensals; test: Synthetic gut commensal community growth with macrolide and antidote (Example 5); type: cell-based; conditions: erythromycin and azithromycin
Source text: Heat maps depict area under the growth curve (AUC) of a synthetic community consisting of seven human gut commensals. Shown is the median AUC of three individual replicates. All drug concentrations are in μM.
So far, antidote effects have only been analyzed in single or pure cultures. However, the human gut microbiome is a complex community of many different bacterial taxa that is usually not adequately mimicked in monocultures.

Staphylococcus aureus = test: Checkerboard assays for pathogens under aerobic conditions; type: cell-based; conditions: for effect on the potency of erythromycin: Staphylococcus aureus, aerobic
Experimental: as §4

E. faecium [11] = test: as above; type: cell-based
Experimental: as §4

S. pneumoniae = conditions: cited from earlier work
[12] = tested on: Streptococcus groups A, B, C & G; conditions: cited from earlier work
Staphylococcus = conditions: cited from earlier work
B. vulgatus [13] = test: Growth curves and time-lapse microscopy under erythromycin; type: cell-based, Bacteroides vulgatus; conditions: 15 μg/ml erythromycin (5-fold MIC), time-lapse microscopy
Experimental: (§5) Microscopy: For live/dead imaging, stained cells were washed twice in 0.85% NaCl before being spotted on 0.85% NaCl+1% agarose pads between a glass slide and a coverslip. For time-lapse imaging, cells were precultured as described in the growth conditions section. […] Slides were sealed with valap and taken outside of the chamber for imaging. The imaging was performed using a Nikon Eclipse Ti inverted microscope, equipped with a Nikon DS-Qi2 camera, a Nikon Plan Apo Lambda 60× oil Ph3 DM phase contrast objective and a Nikon HC mCherry filter set (Ex 562/40; DM 593; BA 641/75) to detect propidium iodide fluorescence. Images were acquired with the NIS-Elements AR4.50.00 software and processed with Fiji v.2.0.0-rc-68/1.52 h.
(§6) Growth curves: Cells were precultured as described in the growth conditions section. Then, cells were diluted to an OD578=0.01 in a 96-well plate sealed with a breathable membrane (Breathe-Easy®) and grown for 2 h. Next, erythromycin was added to the culture to a final concentration of 15 μg/ml (5-fold MIC) and growth curves were acquired for 20 h using a microplate spectrophotometer (EON, Biotek) by measuring the OD578 every hour after 30 sec of linear shaking.

B. uniformis = test: as above; type: cell-based, Bacteroides uniformis; conditions: 15 μg/ml erythromycin (5-fold MIC), time-lapse microscopy
Experimental: as §5, §6

[14] = erythromycin 1.15 μM + 40 μM dicumarol or 20 μM benzbromarone
[15] = Erythromycin 0.625 μM + 20 μM drug

| SMILES | tested abundant gut commensal species whose growth is rescued [1] | counteracting erythromycin on other abundant gut commensals [1] | protection of Bacteroidales species from azithromycin [2] | Validation (B. vulgatus [3]; Erythromycin 0.625 μM constant) | rescue of B. vulgatus growth from erythromycin (B. vulgatus [5]) | rescue from erythromycin or azithromycin treatment (E. faecalis [7]) | effect on the potency of erythromycin (Streptococcus pneumoniae) | rescue from erythromycin or azithromycin treatment (E. faecium [8]) | Mean z-score (B. vulgatus [9]; [15]) | protection (growth rescue) of synthetic gut commensal community from macrolide antibiotics [10] | effect on the potency of erythromycin (Staphylococcus aureus) | other results |
| --- | --- | --- | --- | --- | --- | --- | --- | --- | --- | --- | --- | --- |
| O=c1oc2ccccc2c(O)c1Cc1c(O)c2ccccc2oc1=O [Dicumarol, 3,3′-Methylene-bis(4-hydroxycoumarin)] | 5/7 | able to counteract erythromycin on several species | can be Protected | TRUE | rescued; also recorded: can rescue the growth | Neither dicumarol nor benzbromarone or tolfenamic acid could rescue | did not affect the potency | Neither dicumarol nor benzbromarone or tolfenamic acid could rescue | 7.313 | can be Protected | did not affect the potency | E. faecalis counts (E. faecalis [4]; [14]): drop/are still found at below the detection limit; E. faecalis cells in community under erythromycin + antidote (E. faecalis [4]; erythromycin + antidote): efficiently inhibited; community growth (AUC) [6, 14]: the community is rescued; rescue of the community despite erythromycin treatment ([6]; erythromycin + antidote): rescue of the community |
| Cc1c(Cl)cccc1Nc1ccccc1C(=O)O [Tolfenamic acid] | 5/7 | able to counteract erythromycin on several species | can be Protected | TRUE | able to protect; also recorded: can rescue the growth | Neither dicumarol nor benzbromarone or tolfenamic acid could rescue | did not affect the potency | Neither dicumarol nor benzbromarone or tolfenamic acid could rescue | 7.381 | can be Protected | did not affect the potency | Validation (B. vulgatus [3]; Doxycycline 0.078 μM constant): TRUE; rescue of B. vulgatus growth from doxycycline (B. vulgatus [5]; combination with doxycycline): able to protect; interaction with antibacterial effects of erythromycin/azithromycin (E. faecalis [7]): synergized; interaction with antibacterial effects of erythromycin/azithromycin (E. faecium [8]): synergized; Mean z-score (B. vulgatus [9]; Doxycycline 0.08 μM + 20 μM drug): 4.000; drug interaction with erythromycin in checkerboard (E. faecium [11]): neutral interactions; drug interaction with erythromycin in checkerboard (Staphylococcus aureus; S. aureus, aerobic conditions): neutral interactions |
| CC[C@H]1OC(=O)[C@H](C)[C@@H](O[C@H]2C[C@@](C)(OC)[C@@H](O)[C@H](C)O2)[C@H](C)[C@@H](O[C@@H]2O[C@H](C)C[C@H](N(C)C)[C@H]2O)[C@](C)(O)C[C@@H](C)C(=O)[C@H](C)[C@@H](O)[C@]1(C)O [Erythromycin, erythromycin] | – | – | – | – | – | – | – | – | – | – | – | MIC breakpoint (S. pneumoniae): 0.25 µg/mL (≈ 0.341 µM); E. faecalis cells in the community (E. faecalis [4]; erythromycin 1.15 μM alone): ~9×10^5 cells; MIC breakpoint [12]: 0.25 µg/mL (≈ 0.341 µM); community growth (AUC) ([6]; erythromycin 1.15 μM alone): partially inhibited; MIC breakpoint (Staphylococcus): 1 µg/mL (≈ 1.36 µM); cell morphology / lysis (B. vulgatus [13]): cell shape defects, including blebbing, cytoplasmic shrinkage, and ultimately cell lysis; cell morphology / lysis (B. uniformis): cell shape defects, including blebbing, cytoplasmic shrinkage, and ultimately cell lysis |
